According to patent publication US11708368B2, “Crystal form of ethyl (S)-3-(8-bromo-1-methyl-6-(pyridin-2-yl)-4H-benzo[f]imidazo[1,2-a][1,4]diazepin-4-yl)propanoate hydrochloride” (JIANGSU NHWALUOKANG PHARMACEUTICAL RESEARCH AND DEVELOPMENT …, priority 2018, dated 2023):

Columns and labels:
[1] = Accelerated stability test (40° C., RH75%), change in degradation product CNS-7054; type: physicochemical; conditions: for CNS-7054 increase, accelerated experiment (40° C., RH75%): in 1 month, sulfonate of the benzodiazepine derivative; for Change in CNS-7054, Accelerated experiment (40° C., RH75%): 6 months, after packaging, degradation product CNS-7054
Method: (§1) The compound of Formula I prepared in the above examples were selected, and placed under the conditions of 40° C., RH75% and 25° C., RH60% for an accelerated stability test and a long-term stability test after packaging. The changes in the degradation product (CNS-7054) in these compounds in 6 months were observed, and the results are shown in Table 13 below.
(§2) In addition, a lyophilized preparation made of sulfonates according to the prior art were partially degraded into carboxylic acid (CNS-7054) and released alcohol in both the accelerated and long-term experiments.

[2] = Long-term stability test (25° C., RH60%), change in degradation product CNS-7054; type: physicochemical; conditions: for CNS-7054 increase, long-term experiment (25° C., RH60%): in 3 months, sulfonate of the benzodiazepine derivative; for Change in CNS-7054, Long-term experiment (25° C., RH60%): 6 months, after packaging, degradation product CNS-7054
Method: as §1, §2

[3] = tested on: KM mice; assay: LD50 in KM mice by sequential method (death); type: in vivo; conditions: for TI (therapeutic index): KM mice, calculated through LD50 and ED50 values; for LD50 (95% confidence interval): male KM mice, tail vein injection in 5 seconds, death, sequential method
Method: (§3) Sequential method was used to determine the hypnotic ED50 and LD50 in KM mice for the hydrochloride of the benzodiazepine derivative. Healthy and qualified male KM mice were selected, n=10−20. The drug was injected through the tail vein at a constant rate in 5 seconds. After preliminary pre-test, the approximate dosage that may cause hypnosis (or death) of the animals was found as an intermediate dosage in the formal experiment. A group interval of 0.8 was used, and 2-3 dosage groups were set up and down respectively. The formal experiment started with the administration from the intermediate dosage. When the animal was narcotized (or died), the dosage was reduced by one dose. If the animal was not narcotized (or died), the dosage was increased by one until 3-4 repetitions occurred. The ED50 value and LD50 value were measured with the disappearance of righting reflex or death as indicators. The therapeutic index (TI index=[…]) was calculated through LD50 and ED50 values.

[4] = tested on: KM mice; assay: Hypnotic ED50 in KM mice by sequential method (disappearance of righting reflex); type: in vivo; conditions: male KM mice, tail vein injection in 5 seconds
Method: as §3

[5] = tested on: KM mice; assay: 2*ED50 anesthesia pharmacodynamics experiment in KM mice (induction time, duration, walking time); type: in vivo; conditions: n=20, dosage 2*ED50, tail vein injection in 5 seconds
Method: KM mice, half male and half female, 20 mice in each group. […] The time of loss of the righting reflex in mice (induction time), recovery time (duration) and walking time were recorded.

[6] = tested on: patients; conditions: Phase II clinical trial of ICU sedation; cited from earlier work

SMILES: CCOC(=O)CCC1N=C(c2ccccn2)c2cc(Br)ccc2-n2c(C)cnc21.O=S(=O)(O)c1ccccc1 (stereo not shown)
- CNS-7054 increase, accelerated experiment (40° C., RH75%) [1]: Increased by 0.05%
- CNS-7054 increase, long-term experiment (25° C., RH60%) [2]: Increased by 0.03%

SMILES: CCOC(=O)CCC1N=C(c2ccccn2)c2cc(Br)ccc2-n2c(C)cnc21.O=S(=O)(O)c1ccccc1 (stereo not shown) [positive control 2]
- TI (therapeutic index) [3]: 16.8
- LD50 (95% confidence interval) [3]: 263.14 mg/kg
- ED50 (95% confidence interval) [4]: 15.62 mg/kg

SMILES: COC(=O)CCC1N=C(c2ccccn2)c2cc(Br)ccc2-n2c(C)cnc21.Cc1ccc(S(=O)(=O)O)cc1 (stereo not shown)
- CNS-7054 increase, accelerated experiment (40° C., RH75%) [1]: Increased by 0.1%
- CNS-7054 increase, long-term experiment (25° C., RH60%) [2]: Increased by 0.1%

SMILES: COC(=O)CCC1N=C(c2ccccn2)c2cc(Br)ccc2-n2c(C)cnc21.Cl (stereo not shown) [Methyl, 4% valine]
- Change in CNS-7054, Accelerated experiment (40° C., RH75%) [1]: Increased by 0.01%
- Change in CNS-7054, Long-term experiment (25° C., RH60%) [2]: Not increased

SMILES: COC(=O)CCC1N=C(c2ccccn2)c2cc(Br)ccc2-n2c(C)cnc21.Cl (stereo not shown) [Methyl, 4% glycine]
- Change in CNS-7054, Accelerated experiment (40° C., RH75%) [1]: Increased by
- Change in CNS-7054, Long-term experiment (25° C., RH60%) [2]: Not increased

SMILES: COC(=O)CCC1N=C(c2ccccn2)c2cc(Br)ccc2-n2c(C)cnc21.Cl (stereo not shown) [Methyl, 3% glycine]
- Change in CNS-7054, Accelerated experiment (40° C., RH75%) [1]: Not increased
- Change in CNS-7054, Long-term experiment (25° C., RH60%) [2]: Not increased

SMILES: CCOC(=O)CCC1N=C(c2ccccn2)c2cc(Br)ccc2-n2c(C)cnc21.O=S(=O)(O)c1ccccc1 (stereo not shown) [Positive control 2]
- Number of animals with duration time longer than 10 min [5]: 7/20
- Number of animals with walking time longer than 1 min [5]: 10/20
- Walking time [5]: 192.9 ± 268.98 s
- duration time (recovery time) [5]: 443.75 ± 247.86 s
- induction time (time of loss of the righting reflex) [5]: 17.1 ± 2.00 s

SMILES: CCOC(=O)CCC1N=C(c2ccccn2)c2cc(Br)ccc2-n2c(C)cnc21.Cl (stereo not shown) [Ethyl, None]
- Change in CNS-7054, Accelerated experiment (40° C., RH75%) [1]: Not increased
- Change in CNS-7054, Long-term experiment (25° C., RH60%) [2]: Not increased

SMILES: COC(=O)CC[C@@H]1N=C(c2ccccn2)c2cc(Br)ccc2-n2c(C)cnc21.O=S(=O)(O)c1ccccc1
- CNS-7054 increase, accelerated experiment (40° C., RH75%) [1]: Increased by 0.07%
- CNS-7054 increase, long-term experiment (25° C., RH60%) [2]: Increased by 0.04%

SMILES: CCOC(=O)CCC1N=C(c2ccccn2)c2cc(Br)ccc2-n2c(C)cnc21.Cc1ccc(S(=O)(=O)O)cc1 (stereo not shown)
- CNS-7054 increase, accelerated experiment (40° C., RH75%) [1]: Increased by 0.2%
- CNS-7054 increase, long-term experiment (25° C., RH60%) [2]: Increased by 0.1%

SMILES: COC(=O)CCC1N=C(c2ccccn2)c2cc(Br)ccc2-n2c(C)cnc21.Cl (stereo not shown) [Methyl, 5% alanine]
- Change in CNS-7054, Accelerated experiment (40° C., RH75%) [1]: Increased by 0.01%
- Change in CNS-7054, Long-term experiment (25° C., RH60%) [2]: Not increased

SMILES: COC(=O)CCC1N=C(c2ccccn2)c2cc(Br)ccc2-n2c(C)cnc21.O=S(=O)(O)c1ccccc1 (stereo not shown) [positive control 1]
- TI (therapeutic index) [3]: 6.6
- LD50 (95% confidence interval) [3]: 270.09 mg/kg
- ED50 (95% confidence interval) [4]: 40.64 mg/kg

SMILES: COC(=O)CCC1N=C(c2ccccn2)c2cc(Br)ccc2-n2c(C)cnc21.Cl (stereo not shown) [Methyl, None]
- Change in CNS-7054, Accelerated experiment (40° C., RH75%) [1]: Not increased

SMILES: CCOC(=O)CCC1N=C(c2ccccn2)c2cc(Br)ccc2-n2c(C)cnc21.Cl (stereo not shown) [Ethyl, 4% valine]
- Change in CNS-7054, Accelerated experiment (40° C., RH75%) [1]: Increased by 0.01%

SMILES: CCOC(=O)CCC1N=C(c2ccccn2)c2cc(Br)ccc2-n2c(C)cnc21.Cl (stereo not shown) [Ethyl, 4% alanine]
- Change in CNS-7054, Accelerated experiment (40° C., RH75%) [1]: Increased by 0.01%
- Change in CNS-7054, Long-term experiment (25° C., RH60%) [2]: Not increased

SMILES: CCOC(=O)CCC1N=C(c2ccccn2)c2cc(Br)ccc2-n2c(C)cnc21.Cl (stereo not shown) [Ethyl, 5% alanine]
- Change in CNS-7054, Accelerated experiment (40° C., RH75%) [1]: Increased by 0.01%
- Change in CNS-7054, Long-term experiment (25° C., RH60%) [2]: Not increased

SMILES: COC(=O)CC[C@@H]1N=C(c2ccccn2)c2cc(Br)ccc2-n2c(C)cnc21 [Remimazolam]
- hemodynamics of the patients after receiving the drug [6]: unstable
- patients with plasma concentration higher than the normal range [6]: 10%

SMILES: COC(=O)CCC1N=C(c2ccccn2)c2cc(Br)ccc2-n2c(C)cnc21.O=S(=O)(O)c1ccccc1 (stereo not shown) [Positive control 1]
- Number of animals with duration time longer than 10 min [5]: 9/20
- Number of animals with walking time longer than 1 min [5]: 17/20
- Walking time [5]: 514.95 ± 525.16 s
- duration time (recovery time) [5]: 692.3 ± 399.15 s
- induction time (time of loss of the righting reflex) [5]: 17.6 ± 1.93 s

SMILES: CCOC(=O)CCC1N=C(c2ccccn2)c2cc(Br)ccc2-n2c(C)cnc21.Cl (stereo not shown) [Ethyl, 2.8% glycine]
- Change in CNS-7054, Accelerated experiment (40° C., RH75%) [1]: Not increased
- Change in CNS-7054, Long-term experiment (25° C., RH60%) [2]: Not increased

SMILES: CCOC(=O)CCC1N=C(c2ccccn2)c2cc(Br)ccc2-n2c(C)cnc21.Cl (stereo not shown) [Ethyl, 4.5% glycine]
- Change in CNS-7054, Accelerated experiment (40° C., RH75%) [1]: Not increased
- Change in CNS-7054, Long-term experiment (25° C., RH60%) [2]: Not increased

SMILES: CCOC(=O)CCC1N=C(c2ccccn2)c2cc(Br)ccc2-n2c(C)cnc21.Cl (stereo not shown) [Ethyl, 1.7% glycine]
- Change in CNS-7054, Accelerated experiment (40° C., RH75%) [1]: Not increased
- Change in CNS-7054, Long-term experiment (25° C., RH60%) [2]: Not increased

SMILES: CCOC(=O)CC[C@@H]1N=C(c2ccccn2)c2cc(Br)ccc2-n2c(C)cnc21.Cl [R is ethyl, hydrochloride, ethyl (S)-3-(8-bromo-1-methyl-6-(pyridin-2-yl)-4H-benzo[f]imidazo[1,2-a][1,4]diazepin-4-yl)propanoate hydrochloride]
- incidence of the animal anesthesia time of more than 10 minutes [5]: 20%
- incidence of the animal walking time of more than 1 min [5]: 15%

SMILES: COC(=O)CCC1N=C(c2ccccn2)c2cc(Br)ccc2-n2c(C)cnc21.Cl (stereo not shown) [Methyl, 2% glycine]
- Change in CNS-7054, Accelerated experiment (40° C., RH75%) [1]: Not increased
- Change in CNS-7054, Long-term experiment (25° C., RH60%) [2]: Not increased
